Among the data in US9403833B2, “Carboxamide derivatives” (Novartis AG, priority 2014, dated 2016) are IC50 values, retold here.

pIC50: −log10 of the molar value.

Chain of Smurf-1 (Q9HCE7 whole entry): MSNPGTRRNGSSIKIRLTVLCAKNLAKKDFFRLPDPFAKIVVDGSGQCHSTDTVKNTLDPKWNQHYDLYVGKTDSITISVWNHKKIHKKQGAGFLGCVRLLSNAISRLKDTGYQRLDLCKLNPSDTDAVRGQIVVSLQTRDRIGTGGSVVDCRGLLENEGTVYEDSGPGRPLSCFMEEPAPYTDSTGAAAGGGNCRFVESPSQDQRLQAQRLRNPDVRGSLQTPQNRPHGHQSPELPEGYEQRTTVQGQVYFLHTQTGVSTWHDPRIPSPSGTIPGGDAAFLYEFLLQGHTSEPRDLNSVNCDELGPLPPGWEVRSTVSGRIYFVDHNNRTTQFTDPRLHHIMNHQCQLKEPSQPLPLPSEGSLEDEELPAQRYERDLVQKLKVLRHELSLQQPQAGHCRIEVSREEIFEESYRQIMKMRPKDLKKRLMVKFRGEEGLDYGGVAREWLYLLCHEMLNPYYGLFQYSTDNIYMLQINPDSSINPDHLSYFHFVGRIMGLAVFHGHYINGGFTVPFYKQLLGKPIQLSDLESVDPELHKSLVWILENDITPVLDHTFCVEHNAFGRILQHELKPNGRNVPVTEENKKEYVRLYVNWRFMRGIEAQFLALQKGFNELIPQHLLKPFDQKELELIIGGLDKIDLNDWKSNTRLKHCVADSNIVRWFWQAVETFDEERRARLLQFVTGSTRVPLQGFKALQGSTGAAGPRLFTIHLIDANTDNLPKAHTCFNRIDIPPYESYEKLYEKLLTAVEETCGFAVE

The assay concerns the target Smurf-1 (Homo sapiens (Human), UniProt Q9HCE7). The assay is described as follows: HECT E3 ligase autoubiquitinylation TR-FRET assay (Smurf-1). The note with it: 8-point dose-response, 3 nM to 10 uM, 45 min incubation. Format: biochemical. From the text:
To determine the HECT E3 ligase selectivity of the compounds, a panel of biochemical HECT E3 ligase autoubiquitinylation assays was employed (Smurf-1, Smurf-2, WWP1, WWP2, ITCH, Nedd4, Nedd4L and E6AP). The conjugation of ubiquitin to a protein substrate is a multistep process. In an initial ATP-requiring step, a thioester bond is formed between the carboxyl terminus of ubiquitin and an internal cystein residue of the ubiquitin-activating enzyme (E1). Activated ubiquitin is then transferred to a specific cystein residue of an ubiquitin-conjugating enzyme (E2). E2s donate ubiquitin to a HECT E3 ligase (E3) from which it is transferred to the substrate protein. HECT E3 ligases can auto-ubiquitinylate. This event is detected in the TR-FRET (Time-Resolved Fluorescence Resonance Energy Transfer) assay used in this panel. The reaction mix contains E1, E2, tagged-E3, biotin-conjugated ubiquitin, the compound and ATP in a suitable buffer and is incubated for 45 minutes to allow auto-ubiquitinylation of the E3 ligase. To measure the extent of ubiquitinylated E3 ligase by TR-FRET, the donor fluorophore Europium cryptate (Eu3+ cryptate), conjugated to streptavidin which subsequently binds to biotinylated ubiquitin, and the modified allophycocyanin XL665 (HTRF® primary acceptor fluorophore) coupled to a tag-specific antibody (HA, His or GST), which recognizes the respective E3 ligase fusion proteins, are added after the reaction is complete. When these two fluorophores are brought together by a biomolecular interaction (in this case ubiquitinylation of the E3 ligase), a portion of the energy captured by the Cryptate during excitation is released through fluorescence emission at 620 nm, while the remaining energy is transferred to XL665. This energy is then released by XL665 as specific fluorescence at 665 nm. Light at 665 nm is emitted only through FRET with Europium.
Test and reference compounds are prepared at 180× [final] in 90% DMSO, and diluted 1:3 in 90% DMSO.
For the biochemical assay panel, 50 nl of the test compounds, reference compounds and buffer/DMSO control are transferred to the respective wells of a 384-well white GREINER “SMALL VOLUME” PS plate. The assay panel is run at room temperature on a Biomek FX liquid handling workstation. To the assay plates containing 50 nl compound or control solutions in 90% DMSO, 4.5 ul of E3 ligase solution were added per well, followed by 4.5 ul of the pre-incubated E1/E2/Ub mix or the pre-diluted ubiquitin (LOW control). Plates are shaken vigorously after each addition. In this assay the compound concentrations range from 3 nM to 10 uM in an 8-point dose-response curve.
After 45 min of incubation the ubiquitinylation reactions were stopped by adding 4.5 ul 2 mM NEM, immediately followed by 4.5 ul of a detection solution including the XL665-labeled antibody and the streptavidin-coupled europium to give a total volume of 18 ul. After an incubation time of 45 min in the dark, the plates are transferred into the Pherastar fluorescence reader to measure the TR-FRET signal.
(TR-FRET usually uses a lanthanide donor and a delayed reading to cut background.)
By pIC50 is commonly meant the negative decadic logarithm of the IC50, by convention in mol/L. Low readings indicate a large IC50, high ones a small IC50. The compound `Cc1c(C(=O)Nc2c(C)n(C)n(-c3ccccc3F)c2=O)nnn1-c1ccc(OC(F)(F)F)cc1Cl` [Example 9, 1-(2-Chloro-4-(trifluoromethoxy)phenyl)-N-(2-(2-fluorophenyl)-1,5-dimethyl-3-oxo-2,3-dihydro-1H-pyrazol-4-yl)-5-methyl-1H-1,2,3-triazole-4-carboxamide] showed a pIC50 of 5.36.
For `Cc1c(C(=O)Nc2c(C)n(C)n(-c3ccccc3F)c2=O)nnn1-c1ccc(Cl)cc1` [Example 8, 1-(4-Chlorophenyl)-N-(2-(2-fluorophenyl)-1,5-dimethyl-3-oxo-2,3-dihydro-1H-pyrazol-4-yl)-5-methyl-1H-1,2,3-triazole-4-carboxamide], the pIC50 was 5.55.
`Cc1c(C(=O)Nc2c(C)n(C)n(C3CCCCC3)c2=O)nnn1-c1ccc(Cl)cc1` [Example 6, 1-(4-Chlorophenyl)-N-(2-cyclohexyl-1,5-dimethyl-3-oxo-2,3-dihydro-1H-pyrazol-4-yl)-5-methyl-1H-1,2,3-triazole-4-carboxamide] gave a negative-log IC50 (pIC50) of 5.09.
`[2H]C([2H])([2H])n1c(C)c(NC(=O)c2nnn(-c3ccc(C4CC4)cc3Cl)c2C)c(=O)n1C1CCCCC1` [Example 12, 1-(2-Chloro-4-cyclopropylphenyl)-N-(2-cyclohexyl-1-methyl-d3,5-methyl-3-oxo-2,3-dihydro-1H-pyrazol-4-yl)-5-methyl-1H-1,2,3-triazole-4-carboxamide]: the pIC50 is 7.01.
`Cc1c(C(=O)Nc2c(C)n(C)n(-c3ccccc3F)c2=O)nnn1-c1ccc(Cl)cc1C1CC1` [Example 13, 1-(4-Chloro-2-cyclopropylphenyl)-N-(2-(2-fluorophenyl)-1,5-dimethyl-3-oxo-2,3-dihydro-1H-pyrazol-4-yl)-5-methyl-1H-1,2,3-triazole-4-carboxamide] showed a pIC50 of 5.48.
The result for `Cc1c(C(=O)Nc2c(C)n(C)n(C3CCCCC3)c2=O)nnn1-c1ccc(Cl)cc1C1CC1` [Example 14, 1-(4-Chloro-2-cyclopropylphenyl)-N-(2-cyclohexyl-1,5-dimethyl-3-oxo-2,3-dihydro-1H-pyrazol-4-yl)-5-methyl-1H-1,2,3-triazole-4-carboxamide] reads 6.64; that for `Cc1c(NC(=O)c2nnn3c2CCCc2cc(OC(F)(F)F)ccc2-3)c(=O)n(C2CCCCC2)n1C` [Example 16, N-(2-Cyclohexyl-1,5-dimethyl-3-oxo-2,3-dihydro-1H-pyrazol-4-yl)-8-(trifluoromethoxy)-5,6-dihydro-4H-benzo[f][1,2,3]triazolo[1,5-a]azepine-3-carboxamide], 7.26.
The compound `Cc1c(C(=O)Nc2c(C)n(C)n(C3CCCCC3)c2=O)nnn1-c1ccc(C2CC2)cc1Cl` [Example 10, 1-(2-Chloro-4-cyclopropylphenyl)-N-(2-cyclohexyl-1,5-dimethyl-3-oxo-2,3-dihydro-1H-pyrazol-4-yl)-5-methyl-1H-1,2,3-triazole-4-carboxamide] showed a pIC50 of 7.04.
Then `Cc1c(C(=O)Nc2c(C)n(C)n(-c3ccccc3F)c2=O)nnn1-c1ccc(Cl)cc1Cl` [Example 7, 1-(2,4-Dichlorophenyl)-N-(2-(2-fluorophenyl)-1,5-dimethyl-3-oxo-2,3-dihydro-1H-pyrazol-4-yl)-5-methyl-1H-1,2,3-triazole-4-carboxamide], with 5.24; and `Cc1c(C(=O)Nc2c(C)n(C)n(C3CCCCC3)c2=O)nnn1-c1ccc(Cl)cc1Cl` [Example 2, N-(2-Cyclohexyl-1,5-dimethyl-3-oxo-2,3-dihydro-1H-pyrazol-4-yl)-1-(2,4-dichlorophenyl)-5-methyl-1H-1,2,3-triazole-4-carboxamide], with 6.24; and `Cc1c(C(=O)Nc2c(C)n(C)n(C3CCCCC3)c2=O)nnn1-c1ccc(OC(F)(F)F)cc1Cl` [Example 5, 1-(2-Chloro-4-(trifluoromethoxy)phenyl)-N-(2-cyclohexyl-1,5-dimethyl-3-oxo-2,3-dihydro-1H-pyrazol-4-yl)-5-methyl-1H-1,2,3-triazole-4-carboxamide], with 6.26.
Compound `COc1ccc(-n2nnc(C(=O)Nc3c(C)n(C)n(C4CCCCC4)c3=O)c2C)cc1` [Example 17, N-(2-Cyclohexyl-1,5-dimethyl-3-oxo-2,3-dihydro-1H-pyrazol-4-yl)-1-(4-methoxyphenyl)-5-methyl-1H-1,2,3-triazole-4-carboxamide] gave a pIC50 of 5.51.
Compound `Cc1c(C(=O)Nc2c(C)n(C)n(-c3ccccc3F)c2=O)nnn1-c1ccc(C2CC2)cc1Cl` [Example 11, 1-(2-Chloro-4-cyclopropylphenyl)-N-(2-(2-fluorophenyl)-1,5-dimethyl-3-oxo-2,3-dihydro-1H-pyrazol-4-yl)-5-methyl-1H-1,2,3-triazole-4-carboxamide] showed a pIC50 of 6.00.
The compound `COc1ccc(-n2nnc(C(=O)Nc3c(C)n(C)n(C4CCCCC4)c3=O)c2C)c(C(F)(F)F)c1` [Example 3, N-(2-Cyclohexyl-1,5-dimethyl-3-oxo-2,3-dihydro-1H-pyrazol-4-yl)-1-(4-methoxy-2-(trifluoromethyl)phenyl)-5-methyl-1H-1,2,3-triazole-4-carboxamide] showed a pIC50 of 6.05.
For the compound `COc1ccc(-n2nnc(C(=O)Nc3c(C)n(C)n(C4CCCCC4)c3=O)c2C)c(Cl)c1` [Example 1, 1-(2-Chloro-4-methoxyphenyl)-N-(2-cyclohexyl-1,5-dimethyl-3-oxo-2,3-dihydro-1H-pyrazol-4-yl)-5-methyl-1H-1,2,3-triazole-4-carboxamide], the pIC50 was 6.36.
`Cc1c(C(=O)Nc2c(C)n(C)n(C3CCCCC3)c2=O)nnn1-c1ccc(F)cc1C1CC1` [Example 15, N-(2-Cyclohexyl-1,5-dimethyl-3-oxo-2,3-dihydro-1H-pyrazol-4-yl)-1-(2-cyclopropyl-4-fluorophenyl)-5-methyl-1H-1,2,3-triazole-4-carboxamide]: the pIC50 is 5.35.
